The supplement of paper PMC5908809

How the values were obtained:
[1] = test system: normal NK cells expanded with K562-aAPC; assay: percent inhibition of viability; higher = more inhibition; settings: 72 h, IL-2 2.5 ng/mL
Protocol: (§1)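 Drug sensitivity and resistance testing on K562-aAPC-expanded normal NK cells: 5 concentrations (10-fold steps over a 10,000-fold range), 72 h at 37 °C, viability by CellTiter-Glo normalised to DMSO and benzethonium chloride controls; DSS from the fitted curve.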

[2] = test system: normal NK cells expanded with K562-aAPC; assay: drug sensitivity score (DSS) (DSS units); higher = more sensitive; extreme values may be limits of the assay; settings: 72 h; IL-2 2.5 ng/mL
Protocol: as §1

[3] = test system: IMC-1 (IL-2 20 ng/mL); assay: percent inhibition of viability; higher = more inhibition; settings: 72 h
[4] = test system: normal primary NK cells, pool 1 (3 donors), resting (IL-2 0 ng/mL); assay: as above; settings: 72 h
[5] = test system: NK-YS (IL-2 2.5 ng/mL); assay: as above; settings: 72 h
[6] = test system: KHYG-1 (IL-2 2.5 ng/mL); assay: as above; settings: 72 h
[7] = test system: SNK-6 (IL-2 2.5 ng/mL); assay: as above; settings: 72 h
[8] = test system: normal primary NK cells, pool 2 (3 donors) (IL-2 2.5 ng/mL); assay: as above; settings: 72 h
[9] = test system: KAI3 (IL-2 2.5 ng/mL); assay: as above; settings: 72 h
[10] = test system: YT (IL-2 2.5 ng/mL); assay: as above; settings: 72 h
[11] = test system: normal primary NK cells, pool 1 (3 donors) (IL-2 2.5 ng/mL); assay: as above; settings: 72 h
[12] = test system: normal primary NK cells, pool 3 (3 donors) (IL-2 2.5 ng/mL); assay: as above; settings: 72 h
[13] = test system: NK-92 (IL-2 2.5 ng/mL); assay: as above; settings: 72 h
[14] = test system: DERL-7 (IL-2 2.5 ng/mL); assay: as above; settings: 72 h
[15] = test system: NKL (IL-2 2.5 ng/mL); assay: as above; settings: 72 h
[16] = test system: IMC-1 (IL-2 20 ng/mL); assay: drug sensitivity score (DSS) (DSS units); higher = more sensitive; extreme values may be limits of the assay; settings: 72 h
[17] = test system: normal primary NK cells, pool 1 (3 donors), resting (IL-2 0 ng/mL); assay: as above; settings: 72 h
[18] = test system: NK-YS (IL-2 2.5 ng/mL); assay: as above; settings: 72 h
[19] = test system: KHYG-1 (IL-2 2.5 ng/mL); assay: as above; settings: 72 h
[20] = test system: SNK-6 (IL-2 2.5 ng/mL); assay: as above; settings: 72 h
[21] = test system: normal primary NK cells, pool 2 (3 donors) (IL-2 2.5 ng/mL); assay: as above; settings: 72 h
[22] = test system: KAI3 (IL-2 2.5 ng/mL); assay: as above; settings: 72 h
[23] = test system: YT (IL-2 2.5 ng/mL); assay: as above; settings: 72 h
[24] = test system: normal primary NK cells, pool 1 (3 donors) (IL-2 2.5 ng/mL); assay: as above; settings: 72 h
[25] = test system: normal primary NK cells, pool 3 (3 donors) (IL-2 2.5 ng/mL); assay: as above; settings: 72 h
[26] = test system: NK-92 (IL-2 2.5 ng/mL); assay: as above; settings: 72 h
[27] = test system: DERL-7 (IL-2 2.5 ng/mL); assay: as above; settings: 72 h
[28] = test system: NKL (IL-2 2.5 ng/mL); assay: as above; settings: 72 h

CCN1CCN(c2ccc(Nc3cc(N(C)C(=O)Nc4c(Cl)c(OC)cc(OC)c4Cl)ncn3)cc2)CC1 [NVP-BGJ398] (max concentration tested 1000 nM)
percent inhibition of viability [%]
Settings	0.1 nM	1 nM	10 nM	100 nM	1000 nM
[1]	-0.93	-6.78	-4.9	4.74	2.68
[3]	-7.18	3.41	-1.12	4.31	-1.42
[4]	-6.47	4.3	1.93	4.77	19.9
[5]	-4.6	-4.02	-4.62	-2.71	6.5
[6]	-6.77	-2.35	-1.84	3.9	22.1
[7]	-1.53	-0.29	-14.4	-13.1	-6.84
[8]	-8.08	5.48	12.3	1.57	12.6
[9]	-2.53	-7.26	-1.75	2.95	5.14
[10]	-2.36	0.47	-1.37	5.31	11.7
[11]	4.34	9.33	11.6	4.78	12.1
[12]	-6.2	7.43	9.02	0.22	7.33
[13]	-11.4	1.56	9.63	19.4	17.8
[14]	2.66	5.38	2.13	4.05	8.48
[15]	-0.94	-7.47	0.95	4.24	15

Settings	drug sensitivity score
[2]	0
[16]	0
[17]	1.18
[18]	0
[19]	1.3
[20]	0
[21]	0.05
[22]	0
[23]	0.2
[24]	0
[25]	0
[26]	3.27
[27]	0
[28]	0.59

O=NN(CCCl)C(=O)NCCCl [Carmustine] (max concentration tested 10000 nM)
percent inhibition of viability [%]
Settings	1 nM	10 nM	100 nM	1000 nM	10000 nM
[1]	-3.33	-8.02	-3.23	5.49	10.2
[3]	-8.03	-3.09	-2.96	3.55	8.41
[4]	9.22	19.6	23.1	5.64	15.2
[5]	-3.2	-2.47	-1.96	2.21	7.95
[6]	-12.5	-8.6	-6.75	0.23	1.87
[7]	-5.81	-6.45	1.48	-7.81	-8.51
[8]	-2.54	3.84	0.64	0.07	9.39
[9]	12.9	6.82	6.77	13.6	17.8
[10]	-9.42	-5.55	-4.43	-1.14	11
[11]	4.94	8.26	6.5	0.38	7.88
[12]	-2.97	5.49	5.6	3.01	4.59
[13]	-3.64	-0.92	5.06	12.7	8.79
[14]	5.36	1.21	3.36	-4.79	-4.35
[15]	4.96	5.53	6.04	16.2	15.6

Settings	drug sensitivity score
[2]	0.01
[16]	0
[17]	0
[18]	0
[19]	0
[20]	0
[21]	0
[22]	0
[23]	0
[24]	0
[25]	0
[26]	1.02
[27]	0
[28]	1.26
